According to PMC4948722 (Cancer research, 2011):

Experiments:
Assay in all cases: kinase panel, […] compound, […] ATP
Format in all cases: biochemical
Conditions in all cases: read-out: % inhibition at 1 μM
MLK1 = MLK1 (Homo sapiens, UniProt P80192)
MARK3 = MARK3 (Homo sapiens, UniProt P27448)
GCK = target: T1, GCK (Homo sapiens, UniProt Q12851)
T1 sequence (Q12851 1-820): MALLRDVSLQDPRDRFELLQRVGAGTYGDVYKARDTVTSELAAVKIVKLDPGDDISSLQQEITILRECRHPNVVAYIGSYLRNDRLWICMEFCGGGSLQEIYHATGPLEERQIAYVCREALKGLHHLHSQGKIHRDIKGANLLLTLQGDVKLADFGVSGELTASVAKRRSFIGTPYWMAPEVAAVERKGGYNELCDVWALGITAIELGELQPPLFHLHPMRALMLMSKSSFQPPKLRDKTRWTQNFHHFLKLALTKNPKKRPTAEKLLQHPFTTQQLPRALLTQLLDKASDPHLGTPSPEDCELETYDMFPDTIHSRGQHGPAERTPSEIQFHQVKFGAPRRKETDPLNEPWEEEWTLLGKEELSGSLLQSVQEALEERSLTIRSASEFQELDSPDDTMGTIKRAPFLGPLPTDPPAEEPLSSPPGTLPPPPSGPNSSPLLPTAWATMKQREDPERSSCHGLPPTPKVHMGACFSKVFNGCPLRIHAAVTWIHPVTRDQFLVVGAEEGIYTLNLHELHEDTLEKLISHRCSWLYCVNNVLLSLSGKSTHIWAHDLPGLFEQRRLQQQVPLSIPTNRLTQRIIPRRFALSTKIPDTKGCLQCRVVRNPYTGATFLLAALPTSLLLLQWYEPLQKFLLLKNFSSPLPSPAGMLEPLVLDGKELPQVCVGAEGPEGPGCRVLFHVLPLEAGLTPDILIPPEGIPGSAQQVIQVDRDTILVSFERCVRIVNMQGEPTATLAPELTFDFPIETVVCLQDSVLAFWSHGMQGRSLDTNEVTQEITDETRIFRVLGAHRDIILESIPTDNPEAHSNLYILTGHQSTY

Measured: inhibition at 1 µM

Sequence of MLK1 (P80192 whole entry): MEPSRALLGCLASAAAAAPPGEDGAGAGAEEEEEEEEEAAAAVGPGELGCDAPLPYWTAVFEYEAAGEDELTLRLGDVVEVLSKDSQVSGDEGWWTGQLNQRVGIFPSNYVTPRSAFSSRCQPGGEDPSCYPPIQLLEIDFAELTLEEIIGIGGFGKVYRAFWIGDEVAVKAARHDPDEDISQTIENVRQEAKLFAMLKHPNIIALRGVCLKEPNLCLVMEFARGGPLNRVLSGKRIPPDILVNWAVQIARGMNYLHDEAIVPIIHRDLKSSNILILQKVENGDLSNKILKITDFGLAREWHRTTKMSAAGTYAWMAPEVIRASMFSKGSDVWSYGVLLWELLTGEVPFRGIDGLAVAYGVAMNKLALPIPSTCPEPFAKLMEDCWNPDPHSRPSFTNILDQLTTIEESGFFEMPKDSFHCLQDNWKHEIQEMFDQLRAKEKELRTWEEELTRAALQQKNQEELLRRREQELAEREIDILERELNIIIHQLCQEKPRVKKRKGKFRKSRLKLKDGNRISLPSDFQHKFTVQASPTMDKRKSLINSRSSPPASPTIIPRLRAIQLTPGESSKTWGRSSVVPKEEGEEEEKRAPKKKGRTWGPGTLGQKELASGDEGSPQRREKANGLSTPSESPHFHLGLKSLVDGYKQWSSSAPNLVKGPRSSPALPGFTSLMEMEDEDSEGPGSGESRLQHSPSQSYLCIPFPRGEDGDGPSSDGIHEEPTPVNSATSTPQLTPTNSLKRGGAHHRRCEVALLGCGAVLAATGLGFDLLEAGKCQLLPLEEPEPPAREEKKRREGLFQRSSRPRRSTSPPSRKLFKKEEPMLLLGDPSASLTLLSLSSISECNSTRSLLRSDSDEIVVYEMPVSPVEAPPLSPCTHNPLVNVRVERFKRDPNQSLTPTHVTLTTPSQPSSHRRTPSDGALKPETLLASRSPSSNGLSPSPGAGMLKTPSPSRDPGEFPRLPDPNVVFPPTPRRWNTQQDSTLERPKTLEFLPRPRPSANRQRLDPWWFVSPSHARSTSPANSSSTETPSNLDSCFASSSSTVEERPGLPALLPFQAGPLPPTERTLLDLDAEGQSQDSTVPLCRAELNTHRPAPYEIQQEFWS
Sequence of MARK3 (P27448 whole entry): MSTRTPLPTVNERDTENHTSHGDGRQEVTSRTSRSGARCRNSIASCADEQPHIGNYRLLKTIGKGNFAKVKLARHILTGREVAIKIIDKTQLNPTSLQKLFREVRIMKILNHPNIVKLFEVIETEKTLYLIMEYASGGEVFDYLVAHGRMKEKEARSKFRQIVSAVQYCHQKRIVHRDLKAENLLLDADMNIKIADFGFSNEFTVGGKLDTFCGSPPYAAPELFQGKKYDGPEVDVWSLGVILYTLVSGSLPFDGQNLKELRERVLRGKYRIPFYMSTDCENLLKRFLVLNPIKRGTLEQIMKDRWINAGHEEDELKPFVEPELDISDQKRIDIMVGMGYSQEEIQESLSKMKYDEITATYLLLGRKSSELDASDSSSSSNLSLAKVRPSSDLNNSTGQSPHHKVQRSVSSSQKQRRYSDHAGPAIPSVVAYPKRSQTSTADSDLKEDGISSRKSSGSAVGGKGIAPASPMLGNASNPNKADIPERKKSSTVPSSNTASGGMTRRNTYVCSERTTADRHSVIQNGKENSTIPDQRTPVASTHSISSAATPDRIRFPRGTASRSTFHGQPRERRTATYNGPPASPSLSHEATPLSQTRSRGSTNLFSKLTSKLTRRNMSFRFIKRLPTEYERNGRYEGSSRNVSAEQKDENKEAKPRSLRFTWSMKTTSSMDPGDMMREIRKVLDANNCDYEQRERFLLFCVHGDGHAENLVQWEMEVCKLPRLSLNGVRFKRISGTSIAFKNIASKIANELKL

COc1cc2nc(-c3cc(F)ccc3O)nc(N[C@@H]3CNC[C@H]3C(C)(C)O)c2cc1OC [CCT241533]
> 80%: all assays above
